Results on four compounds are retold here after ChEMBL document CHEMBL1146715, “The discovery and synthesis of novel adenosine substituted 2,3-dihydro-1H-isoindol-1-ones: potent inhibitors of poly(ADP-ribose) polymerase-1 (PARP-1)” (Bioorg Med Chem Lett, 2004).

The target of this assay is Poly [ADP-ribose] polymerase 1 (Mus musculus) (UniProt P11103). Briefly: Percent inhibition of poly(ADP-ribose) polymerase-1 (PARP-1) in mouse using Cell protection assay at 10 uM.
Poly [ADP-ribose] polymerase 1 (Mus musculus), sequence (P11103 whole entry): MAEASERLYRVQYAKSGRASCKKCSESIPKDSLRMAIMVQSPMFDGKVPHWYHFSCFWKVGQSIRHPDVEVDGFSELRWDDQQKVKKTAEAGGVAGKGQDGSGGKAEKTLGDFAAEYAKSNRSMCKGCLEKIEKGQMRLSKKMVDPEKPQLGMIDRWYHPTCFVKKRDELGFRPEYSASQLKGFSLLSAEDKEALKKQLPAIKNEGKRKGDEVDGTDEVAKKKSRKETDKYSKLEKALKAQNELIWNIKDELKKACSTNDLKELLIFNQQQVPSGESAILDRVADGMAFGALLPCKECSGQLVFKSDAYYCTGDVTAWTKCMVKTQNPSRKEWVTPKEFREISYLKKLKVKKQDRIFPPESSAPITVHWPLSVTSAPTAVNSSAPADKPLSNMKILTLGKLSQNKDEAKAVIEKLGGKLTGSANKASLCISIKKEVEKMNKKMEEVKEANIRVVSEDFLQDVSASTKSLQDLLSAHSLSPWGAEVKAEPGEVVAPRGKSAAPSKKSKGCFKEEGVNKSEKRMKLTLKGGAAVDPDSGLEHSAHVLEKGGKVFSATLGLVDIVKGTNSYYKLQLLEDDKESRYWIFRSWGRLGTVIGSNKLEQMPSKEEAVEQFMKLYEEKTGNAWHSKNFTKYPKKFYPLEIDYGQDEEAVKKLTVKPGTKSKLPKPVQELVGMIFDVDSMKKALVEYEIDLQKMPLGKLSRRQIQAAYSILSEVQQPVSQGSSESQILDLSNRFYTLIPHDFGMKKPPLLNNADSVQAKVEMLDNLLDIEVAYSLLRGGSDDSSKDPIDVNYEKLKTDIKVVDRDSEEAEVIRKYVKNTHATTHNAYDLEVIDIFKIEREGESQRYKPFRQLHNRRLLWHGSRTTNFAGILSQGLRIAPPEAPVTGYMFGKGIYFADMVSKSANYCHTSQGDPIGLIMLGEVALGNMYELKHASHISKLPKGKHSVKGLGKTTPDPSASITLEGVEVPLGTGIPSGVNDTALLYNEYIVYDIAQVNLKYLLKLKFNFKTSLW
In general, inhibition refers to the drop in the measured response relative to a control, in per cent. A higher inhibition goes with a response far below the control. For `NC(=O)c1cccc(NC(=O)CCC(=O)NCC2OC(n3cnc4c(N)ncnc43)[C@H](O)[C@@H]2O)c1` (some centres undefined), the inhibition worked out at 52%. With `O=C1N=Cc2ccccc21` the figure was 33%; with `O=C(CCCCCCC(=O)Nc1cccc2c1CNC2=O)NC[C@H]1OC(n2cnc3c(O)ncnc32)[C@H](O)[C@@H]1O` (some centres undefined), 30%; with `Nc1ncnc2c1ncn2C1O[C@H](CNC(=O)/C=C/c2ccc(C(=O)Nc3cccc4c3CNC4=O)cc2)[C@@H](O)[C@H]1O` (some centres undefined), 51%.
